Source: patent US9981933B2, “Detergent compositions” (INNOSPEC LIMITED, priority 2013, dated 2018)

Columns and labels:
[1] = tested on: Zein; assay: In house qualitative test based on the Zein test (irritancy/mildness); assay type: in vitro; conditions: 1% surfactant solution; qualitative comparison
Protocol: The mass of residual Zein is determined gravimetrically.

[2] = In house foaming test (comparative foam heights); assay type: physicochemical; conditions: 1 wt % surfactant solution; relative to 1 wt % Sodium Laureth Sulphate (3EO) = 100
Protocol: A 1 wt % surfactant solution was prepared. The foam heights were measured using an in house foaming test and the results were compared with those obtained using a composition comprising 1 wt % Sodium Laureth Sulphate (3EO) [SLES].

Relative foam height compared to SLES as % [2]	Compound	irritancy/mildness [1]
105%	Ascorbyl Monolaurate Sulphate [Compound 2]	milder than many commercially available personal care surfactants including Sodium Laureth Sulfate (3EO) [SLES]
100%	Sodium Laureth Sulphate (3EO)	
32%	CCCCCCCCCCCC(=O)OC[C@H](O)[C@H]1OC(=O)C(O)=C1O [Compound 1, Ascorbyl Monolaurate]	
